Assay results reported in ChEMBL document CHEMBL2401656, “LDK378: a promising anaplastic lymphoma kinase (ALK) inhibitor” (J Med Chem, 2013).

How the values were obtained:
[1] = test system: Rhesus monkey; assay: Cardiotoxicity in monkey assessed as QTc prolongation by telemetric analysis; format: toxicity, organism-based, Macaca mulatta; settings: in vivo
[2] = organism: Canis familiaris; assay: Cardiotoxicity in dog assessed as QTc prolongation by telemetric analysis; format: toxicity, organism-based, Canis lupus familiaris; settings: in vivo
[3] = biological target: Cytochrome P450 3A4 (Homo sapiens, UniProt P08684); assay: Inhibition of CYP3A4 (unknown origin); format: ADME
Sequence of Cytochrome P450 3A4 (P08684 whole entry): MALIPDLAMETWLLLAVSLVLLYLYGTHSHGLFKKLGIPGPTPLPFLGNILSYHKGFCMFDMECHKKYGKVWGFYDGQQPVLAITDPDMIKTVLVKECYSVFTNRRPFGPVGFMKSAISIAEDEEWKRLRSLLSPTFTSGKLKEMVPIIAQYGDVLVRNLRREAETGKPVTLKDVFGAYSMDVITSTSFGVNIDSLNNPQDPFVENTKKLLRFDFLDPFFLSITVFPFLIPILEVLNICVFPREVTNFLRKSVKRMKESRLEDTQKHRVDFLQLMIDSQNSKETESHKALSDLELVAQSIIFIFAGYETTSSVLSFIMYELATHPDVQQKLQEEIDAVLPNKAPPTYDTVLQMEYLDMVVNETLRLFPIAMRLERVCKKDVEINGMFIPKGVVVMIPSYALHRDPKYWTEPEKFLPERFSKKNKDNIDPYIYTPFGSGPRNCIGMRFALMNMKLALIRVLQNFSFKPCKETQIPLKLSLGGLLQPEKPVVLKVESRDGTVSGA

[4] = Metabolic stability in liver microsomes (unknown origin); format: ADME, Microsome
[5] = test system: Rattus norvegicus; assay: Toxicity in rat xenografted with human NCI-H2228 cells expressing EML4-ALK fusion gene; format: organism-based; settings: in vivo
[6] = test system: Rattus norvegicus; assay: Toxicity in rat xenografted with human KARPAS299 cells; format: organism-based, KARPAS-299; settings: in vivo
[7] = Oral bioavailability in rat; format: ADME, organism-based; settings: in vivo
[8] = Cytotoxicity against mouse BA/F3 cells transfected with Tel-InsR gene assessed as growth inhibition; format: functional, cell-based; settings: BaF3
[9] = Cytotoxicity against wild type mouse BA/F3 cells assessed as growth inhibition; format: functional, cell-based; settings: BaF3
[10] = Cytotoxicity against mouse BA/F3 cells expressing NPM-ALK fusion gene assessed as growth inhibition; format: functional, cell-based; settings: BaF3
[11] = test system: KARPAS-299; assay: Cytotoxicity against human KARPAS299 cells expressing NPM-ALK fusion gene assessed as growth inhibition
[12] = test system: KARPAS-299; settings: Homo sapiens
Description: Antitumor activity against human KARPAS299 cells xenografted in rat assessed as tumor growth inhibition

inhibition (INH) [3]: Active
Stability [4]: Stable
bioavailability [7]: > 50%
SMILES: Cc1cc(Nc2ncc(Cl)c(Nc3ccccc3S(=O)(=O)C(C)C)n2)c(OC(C)C)cc1C1CCNCC1 [CERITINIB]
Activity [1]: Non-toxic
Activity [2]: Non-toxic
Activity [5]: Non-toxic
Activity [6]: Non-toxic
IC50 [8]: 320 nM
IC50 [9]: > 2000 nM
IC50 [10]: 26 nM
IC50 [11]: 22.8 nM
TGI [12]: Dose-dependent effect
